From patent publication US8106092B2, “Treatment of solid cancers” (priority 2004, dated 2012)

Legend:
Type in all cases: in vivo, C57BL/6 mice
Lewis lung-OVA tumors = experiment: Topical PEP005 treatment of Lewis lung-OVA tumors: tumor growth and SIINFEKL-specific CD8+ T-cell ELISPOT
Method: B16 and B16 cells stably expressing ovalbumin (B16-OVA)were grown s.c. in C57BL/6 mice as described previously (Ogbourne et al, Cancer Res 64:2833-2839, 2004; Anraku et al, J Virol 76:3791-3799, 2002). Lung metastases were established as described (Zeh et al, J Immunol 162:989-994, 1999). Lewis lung-OVA (Nelson et al, J Immunol 166:5557-5566, 2001) were grown s.c. in C57BL/6 as described (Lenarczyk et al, Vaccine 22:963-974, 2004).
Tumors were treated by topical or intratumoral (i.t.) injection (using a 26 gauge needle) of (i) PEP0005 dissolved in acetone and then RPMI 1640 (final concentration of acetone 4%), or (ii) PEP005 formulated in PEG400.
Mouse splenocytes were analyzed by ex vivo IFNγ ELISPOT essentially as described previously (Le et al, Vaccine 19:4669-4675, 2001), but using MultiScreen-IP plates (Millipore) and 25 IU/ml of recombinant human IL-2 (Cetus).
Lewis lung-OVA tumors were established on five C57/B16 mice; when they had reached 10-20 mm^2, they were treated topically with PEP005. […] A parallel group of tumor-bearing mice (M7-12) were treated (vehicle only) and grew rapidly as expected with mean size±SD shown (FIG. 2, V(M7-12)). […] The sensitivity of this assay is about five spots per 10^6 splenocytes. […] Thus, again PEP005 treatment was associated with induction of anti-cancer CD8^+ T-cells.

B16 tumors [1] = experiment: B16-specific antibody responses by ELISA after PEP005 treatment of B16 tumors; details: as early as d11; exceeding untreated animals with large tumor burdens, p=0.045 at 1/100 dilution
Method: FIG. 15 is a graphical representation showing antibody responses following PEP005 treatment of B16 tumors. B16 tumors growing on C57BL/6 mice were cured with PEP005 treatment after they had reached 30-60 mm^3, (one tumor per mouse) and B16-specific antibody titers were measured by standard ELISA on blood taken d11 post treatment initiation (n=6) (▪) or d135 post treatment initiation (n=5) (▴). Antibody titers for untreated animals whose tumors had reached 121.5±SD 20.1 (n=4) by d11 are also shown (X). Naïve mice (n=5) received no tumors (i).
Anti-tumor antibodies are known to have anti-cancer activity. […] B16 cells (10^6) were injected s.c. (1 tumor/mouse) into the flanks of female, 6-10 week-old mice and when tumors had reached ≈30-60 mm^3 they were treated with PEP005 as above. On d11 and 135 serum was taken and analyzed by ELISA for antibodies specific for B16. A group of B16 bearing animals which were not treated with PEP005 and a naïve group were also included. B16 cells were sonicated in carbonate buffer 9pH=9) and absorbed onto Immuno Maxisorp 96 well plates (Nunc) overnight and dried. The plates were blocked with 5% v/v FBS, 0.01% v/v Tween in PBS for 1 hour at 37° C. […]

B16 tumors [2] = experiment: PEP005-mediated cure of primaries plus DC therapy, growth of secondary tumors, B16 model; details: DC p=0.009
Method: FIGS. 13A to C are graphical representations showing synergistic effects between PEP005-mediated cure of primaries and DC therapy on the growth of secondary tumors and on CD8^+ T-cell induction. (A) On d−3 C57BL/6 mice where inoculated with 2×10^6 B16-OVA cells on the right flank (primary tumor) and 2×10^4 B16-OVA cells on the left flank (secondary tumor). On d0 and d1 the primary B16-OVA tumors, which has reach 30.4 mm^2+SD6 were cured with i.t. injections of 25 μg of PEP005 formulated in PEG400. On d4 and d11 mice received DC therapy using DC2.4 cells pulsed with SVYDFFVWL [SEQ ID NO:1], KVPRNQDWL [SEQ ID NO:4] and SIINFEKL [SEQ ID NO:2] peptides, and ovalbumin (n=12, PEP005+DC). […] A third group was inoculated with secondary tumors only and received the DC therapy (n=14, DC), and the control group was given only secondary tumors and received no treatment (n=18, Control). Animals were culled when the secondary tumors reached 100 mm^2. (B) The experiment in (A) was repeated in the B16 model (n=6 per group). On d−2 C57BL/6 mice were inoculated with 10^6 B16 cells on the right flank (primary tumor) and 5×10^4 cells on the left flank (secondary tumors). […] Animal groups were established and treated as in (A) except that on d12 mice were sacrificed and splenocytes analyzed in an ex vivo ELISPOT assay for responses to SVYDFFVWL [SEQ ID NO:1], KVPRNQDWL [SEQ ID NO:4] and SIINFEKL [SEQ ID NO:2] […]

[3] = topical PEP005, tumors 10-20 mm^2 at treatment

Structure (SMILES): C/C=C(/C)C(=O)O[C@H]1C(C)=C[C@]23C(=O)[C@@H](C=C(CO)[C@@H](O)[C@]12O)[C@H]1[C@@H](C[C@H]3C)C1(C)C [PEP005, ingenol-3-angelate]
- SIINFEKL-specific CD8+ T-cell responses (Lewis lung-OVA tumors; animals with Lewis lung-OVA tumors treated topically with PEP005): a range of responses that correlated with the effectiveness of the treatment
- SIINFEKL-specific CD8+ T-cell responses, mean ± SD for all mice (Lewis lung-OVA tumors; topical PEP005, mice without tumors, assay sensitivity about five spots): 6.3±9.8 spots per 10^6 splenocytes
- animals showing a limited response of five treated (Lewis lung-OVA tumors; [3]): two
- animals showing a partial response of five treated (Lewis lung-OVA tumors; [3]): two
- tumors cured of the five tumors treated (Lewis lung-OVA tumors; [3]): one
- B16-specific antibody responses (ELISA) (B16 tumors [1]): clearly detectable antibody responses
- growth of secondaries vs no treatment controls (B16 tumors [2]): did not provide a significant delay of tumor growth
